This is an account of results in PMC10976043, “Function and Mechanism of Antiviral Wasp Venom Peptide Protopolybia-MP III and Its Derivatives against HSV-1” (Toxins, 2024).

One data set concerns HSV-1 ICP0. It counts as cell-based, herpes simplex virus type 1. The following applies: for inhibition rate on intracellular HSV-1 ICP0 protein expression: ICP0, 1 h; for inhibition rate on intracellular HSV-1 ICP0 expression level: ICP0, 24 h. The procedure: (§1) (A) Amino acid sequence of Protopolybia-MP III. Basic residues are labeled blue, and acidic residues are labeled red. (B,C) Suppression of intracellular HSV-1 infection by Protopolybia-MP III. Cells were preincubated with Protopolybia-MP III at different concentrations or PBS for 1 h and then infected with HSV-1 at a multiplicity of infection (MOI) of 1. After 24 h, the cells were collected. Intracellular HSV-1 RNA was analyzed by qPCR (B), and intracellular HSV-1 ICP0 protein levels were analyzed by Western blotting (C). (D) Suppression of Protopolybia-MP III on extracellular HSV-1 particles. Cells were treated with Protopolybia-MP III at different concentrations or PBS for 24 h, and then the supernatant was collected and evaluated in a plaque formation assay. (E) Cytotoxicity of Protopolybia-MP III to Vero cells. Cells were treated with Protopolybia-MP III or PBS at different concentrations for 24 h, and then the cytotoxicity was determined by CCK8 assay. * p < 0.05. ** p < 0.01. *** p < 0.001.
(§2) Figure 2 Protopolybia-MP III inhibits HSV-1 replication in human cell lines. (A) Cytotoxicities of Protopolybia-MP III to A549 cells, HCEC, and SK-N-MC. Cells were treated with Protopolybia-MP III at different concentrations or PBS for 24 h, and then cytotoxicities were determined by the CCK8 assay. (B,C) Suppression of intracellular HSV-1 infection by Protopolybia-MP III in A549 cells, HCEC, and SK-N-MC. Cells were preincubated with Protopolybia-MP III at different concentrations or PBS for 1 h and then infected with HSV-1 at an MOI of 1. After 24 h, the cells were collected. Intracellular HSV-1 RNA was analyzed by qPCR (B), and intracellular HSV-1 ICP0 protein expression levels were analyzed by Western blotting (C). (D) Inhibition of Protopolybia-MP III on extracellular HSV-1 particles in A549 cells, HCEC, and SK-N-MC. Cells were treated with Protopolybia-MP III at different concentrations or PBS for 24 h, and then the supernatant was collected and evaluated in a plaque formation assay. * p < 0.05. ** p < 0.01. *** p < 0.001.
(§3) Figure 7 Antiviral activity analysis of Protopolybia-MP III mutants. (A) Amino acid sequences of Protopolybia-MP III mutants. Identical amino acids among Protopolybia-MP I, Protopolybia-MP III, and its mutants are marked in blue, and different amino acids are marked in red. (B) Suppression of Protopolybia-MP I, Protopolybia-MP III, and its mutants on intracellular HSV-1 content. Cells were preincubated with 20 μg/mL peptides or PBS for 1 h and then infected with HSV-1 at an MOI of 1. After 24 h, the cells were collected. Intracellular HSV-1 ICP0 protein levels were analyzed by Western blotting. The ratios of HSV-1 ICP0 to GAPDH were calculated by ImageJ software. (C) Inhibition of HSV-1 free virion infectivity by Protopolybia-MP I, Protopolybia-MP III, and its mutants. HSV-1 (MOI = 1) and 5 μg/mL peptides or PBS were coincubated at 37 °C for 1 h, and the mixtures were then used to infect Vero cells. After 24 h, cells were collected, and intracellular HSV-1 RNA was analyzed by qPCR. ns, no significance. * p < 0.05. ** p < 0.01. *** p < 0.001.
(§4) HSV-1 was kindly provided by Professor Zhijian Cao of Wuhan University. Cells were infected with HSV-1 at an MOI of 1 for 24 h. Then, cells were collected for qPCR, Western blotting, and immunofluorescence assays, and the extracellular supernatant was used for plaque formation assays.
Cells were collected and lysed in 1% SDS. The cell lysate was heated at 100 °C for 20 min and centrifuged at 12,000 rpm at 4 °C for 15 min, and then the supernatant was collected and assayed with a BCA Protein Quantification Kit (Vazyme). Equal amounts of protein were separated using a PAGE Gel Fast Preparation Kit (10%) (Epizyme Biotech, Wuhan, China) and transferred to nitrocellulose (NC) membranes (Millipore, Wuhan, China). […]

For another data set, the system named is HSV-1 virion. Put plainly: HSV-1 free virion infectivity assay, qPCR. It counts as cell-based, herpes simplex virus type 1. The following applies: mutant comparison (Figure 7C): 5 μg/mL coincubated with HSV-1 (MOI 1) at 37 °C for 1 h, then Vero cells infected, 24 h. As for the experimental part: Figure 5 Protopolybia-MP III destroys the integrity of HSV-1 free virions. (A) Schematic diagram for studying the effect of Protopolybia-MP III on HSV-1 free virion infectivity. (B) Effects of Protopolybia-MP III on HSV-1 free virion infectivity at different temperatures. HSV-1 (MOI = 1) and 20 μg/mL Protopolybia-MP III or PBS were coincubated at 4 °C, 22 °C, and 37 °C for 1 h, and then Vero cells were infected as described in (A). After 24 h, cells were collected, and intracellular HSV-1 RNA was analyzed by qPCR. (C) Effects of different concentrations of Protopolybia-MP III on HSV-1 free virion infectivity. HSV-1 (MOI = 1) and 1 or 10 μg/mL Protopolybia-MP III or PBS were coincubated at 37 °C for 1 h, and then Vero cells were infected as described in (A). After 24 h, cells were collected, and intracellular HSV-1 RNA was analyzed by qPCR. (D,E) The effect of Protopolybia-MP III on HSV-1 free virion integrity. HSV-1 and 20 μg/mL Protopolybia-MP III or PBS were coincubated at 37 °C for 1 h. Then, after centrifuging for 2 h at 40,000 rpm at 4 °C, the contents of HSV-1 gB in the supernatant and precipitate were detected by Western blotting (D). In addition, the structure of HSV-1 virions after incubation with Protopolybia-MP III was observed by electron microscopy. The red arrow points to a destroyed HSV-1 virion. *** p < 0.001.
as §3
(§5) Cells were collected and lysed using TRIzol reagent (Beyotime Biotechnology, Shanghai, China) to release the intracellular total RNA, followed by precipitation with isopropanol. The first-strand cDNA was reverse-transcribed by the HiScript III 1st Strand cDNA Synthesis Kit (+gDNA wiper) (Vazyme, Nanjing, China). The cDNA was quantitated by qPCR with primers using Taq Pro Universal SYBR qPCR Master Mix (Vazyme). The HSV-1 primers were 5′-[…]-3′ (sense) and 5′-[…]-3′ (antisense). The monkey GAPDH primers were 5′-[…]-3′ (sense) and 5′-[…]-3′ (antisense). The human GAPDH primers were 5′-[…]-3′ (sense) and 5′-[…]-3′ (antisense). qPCR experiments were performed on a Bio-Rad CFX96 Touch (Pleasanton, CA, USA) according to the manufacturer’s instructions.

Data set [1] concerns HSV-1. It counts as cell-based, herpes simplex virus type 1. The following applies: Vero cells, preincubated 1 h, HSV-1 MOI 1, 24 h, qPCR. As for the experimental part: as §1, §2, §4, §5
Background: Quantitative PCR measures a nucleic acid by following its amplification.

The subject of data set [2] is HSV-1. The experiment in a line: Plaque formation assay of extracellular HSV-1 particles. The data set is classed as cell-based, herpes simplex virus type 1. The following applies: Vero cells treated 24 h, supernatant in plaque formation assay. As for the experimental part: as §1, §2
Vero cells seeded in a 24-well plate at 100% confluence were infected with virus diluent or supernatant. After 1 h of absorption at 37 °C, the supernatant was removed. Cells were washed three times with PBS and replenished with a plaque-covering layer (MEM with 2% FBS and 1.5% carboxymethylcellulose). After an incubation period of approximately 3 days, the cells were stained with 1% crystal violet containing 10% methanol for 0.5 h. Then, the plaques were counted, and the viral titer was calculated according to the plaque number and dilution.

The subject of the next data set is Vero cells. The experiment in a line: CCK8 cytotoxicity assay, Vero cells. The data set is classed as cell-based, monkey. The note with it: 40 μg/mL, 24 h. The procedure: as §1
Cells were seeded in a 96-well plate (7000–10,000 cells per well) and cultured at 37 °C overnight. Peptides in a series of concentrations were added to the medium, and cells were then incubated at 37 °C for 24 h. […] Finally, the absorbance was measured at 450 nm using a microplate reader (BioTek, Winooski, VT, USA).
(In general: Formazan colour is commonly taken as a measure of viable cells.)

Like-named read-outs stand apart in the source and are kept apart here. Ends that are not written are not given here.

On to INWLKLGKAVIAAL-NH2 [MP III-3], for which the “inhibition rate on intracellular HSV-1 ICP0 protein expression” value in the data set with HSV-1 ICP0 (20 μg/mL) turned out to be 94%. The “inhibition rate of HSV-1 free virion infectivity” value in the data set on HSV-1 virion was determined as 58.3%.

In the case of INWLKLGKAVIAIL-NH2 [MP III-10], in the data set on HSV-1 ICP0 (20 μg/mL), the “inhibition rate on intracellular HSV-1 ICP0 protein expression” value worked out at 100%. In addition, in the data set on HSV-1 virion, the “inhibition rate of HSV-1 free virion infectivity” value was found to be 100%.

Consider INWLKLGKAVIDIL-NH2 [MP III-4], for which, in the data set with HSV-1 ICP0 (20 μg/mL), the “inhibition rate on intracellular HSV-1 ICP0 protein expression” value is listed as 99.4%.

Regarding INWLKLGKAVSAAL-NH2 [MP III-8], the “inhibition rate on intracellular HSV-1 ICP0 protein expression” value in the data set with HSV-1 ICP0 (20 μg/mL) came to 66%.

Consider INWLKLGKAVSAIL-NH2 [MP III-11], for which, in the data set with HSV-1 ICP0 (20 μg/mL), the “inhibition rate on intracellular HSV-1 ICP0 protein expression” value is on record as 73.4%. The “inhibition rate of HSV-1 free virion infectivity” value with HSV-1 virion was 64.7%.

For the substance INWLKLGKAVSDAL-NH2 [MP III-2], the “inhibition rate on intracellular HSV-1 ICP0 protein expression” value with HSV-1 ICP0 (20 μg/mL) is on record as 20.6%. Further, the “inhibition rate of HSV-1 free virion infectivity” value in the data set on HSV-1 virion is given as 27.4%.

Turning to INWLKLGKAVSDIL-NH2 [MP III-9], the “inhibition rate on intracellular HSV-1 ICP0 protein expression” value in the data set with HSV-1 ICP0 (20 μg/mL) came to 63.8%. Moreover, in the data set with HSV-1 virion, the “inhibition rate of HSV-1 free virion infectivity” value came out at 63.6%.

For INWLKLGKKVIAAL-NH2 [MP III-6], the “inhibition rate on intracellular HSV-1 ICP0 protein expression” value with HSV-1 ICP0 (20 μg/mL) was found to be 63.2%. Besides, the “inhibition rate of HSV-1 free virion infectivity” value in the data set with HSV-1 virion was found to be 95.5%.

For INWLKLGKKVIAIL-NH2 [MP III-12], the “inhibition rate on intracellular HSV-1 ICP0 protein expression” value in the data set with HSV-1 ICP0 (20 μg/mL) amounted to 76.8%. The “inhibition rate of HSV-1 free virion infectivity” value in the data set with HSV-1 virion was found to be 92.4%.

In the case of INWLKLGKKVIDAL-NH2 [MP III-1], the “inhibition rate on intracellular HSV-1 ICP0 protein expression” value in the data set on HSV-1 ICP0 (20 μg/mL) was 53.7%. The “inhibition rate of HSV-1 free virion infectivity” value in the data set with HSV-1 virion was determined as 59.7%.

For INWLKLGKKVIDIL-NH2 [MP III-7], the “inhibition rate on intracellular HSV-1 ICP0 protein expression” value with HSV-1 ICP0 (20 μg/mL) is reported as 100%. In addition, the “inhibition rate of HSV-1 free virion infectivity” value in the data set on HSV-1 virion was determined as 100%.

For INWLKLGKKVSAAL-NH2 [MP III-14], the “inhibition rate on intracellular HSV-1 ICP0 protein expression” value in the data set with HSV-1 ICP0 (20 μg/mL) is 90.8%. Moreover, in the data set on HSV-1 virion, the “inhibition rate of HSV-1 free virion infectivity” value turned out to be 25.3%.

For the substance INWLKLGKKVSAIL-NH2 [Protopolybia-MP I], the “inhibition rate on intracellular HSV-1 RNA” value in the data set on HSV-1 [1] (5 μg/mL peptide), with HSV-1 [1] (10 μg/mL peptide) and with HSV-1 [1] (20 μg/mL peptide) was “no effect” throughout. The “inhibition rate on intracellular HSV-1 ICP0 expression level” value in the data set with HSV-1 ICP0 (5 μg/mL) came to 17%; with HSV-1 ICP0 (10 μg/mL), 17%; in the data set on HSV-1 ICP0 (20 μg/mL) it was 25%. Also, the “extracellular HSV-1 particles (plaques)” value with HSV-1 [2] is reported as “almost no inhibitory effect”. In addition, in the data set with Vero cells, the “cytotoxicity to Vero cells” value is listed as “almost nontoxic”.

Regarding INWLKLGKKVSDAL-NH2 [MP III-5], the “inhibition rate on intracellular HSV-1 ICP0 protein expression” value with HSV-1 ICP0 (20 μg/mL) was found to be 74.8%.

INWLKLGKKVSDIL-NH2 [MP III-13]: the “inhibition rate on intracellular HSV-1 ICP0 protein expression” value with HSV-1 ICP0 (20 μg/mL) came out at 60.2%.
